Read-outs that look alike come from different tables or passages of the source.
Columns and labels:
[1] = system: Recombinant NADH/NADPH dehydrogenase; experiment: NADH/NADPH dehydrogenase-mediated ROS generation assay; type: biochemical; conditions: 30 μM, 4 h at 37°C; for H2O2 generation, NADH/NADPH dehydrogenase -: absence of NADH/NADPH dehydrogenase; for H2O2 generation, NADH/NADPH dehydrogenase +: presence of NADH/NADPH dehydrogenase
Protocol: Recombinant NADH/NADPH dehydrogenase (0.5 units/well) in a 96-well plate was incubated in 100 μl of the assay buffer (50 mM potassium phosphate buffer, pH 7.5 supplemented with 1 mM EDTA) containing NADPH (3 μM) and superoxide dismutase (SOD) (100 units/well) with and without compound (30 μM) for 4 h at 37°C. At the end of incubation, the level of hydrogen peroxide was measured using a Hydrogen Peroxide Assay kit (Cayman). Control samples were without NADH/NADPH dehydrogenase. The rate of NADH/NADPH dehydrogenase- and compound-mediated ROS production was determined by subtracting values that were obtained in the absence of NADPH dehydrogenase. One unit of NADH/NADPH dehydrogenase was defined as the amount of enzyme required to reduce 1.0 μmole cytochrome C per min/mg in the presence of menadione substrate at 37°C. One unit of SOD was defined as the amount of enzyme required to inhibit reduction of cytochrome C by 50% in a coupled system with xanthine oxidase at pH 7.8 at 25°C in a 3.0 mL reaction volume. Xanthine oxidase concentration should produce an initial ΔA550 of 0.025 ± 0.005 per min.
As the next step, we examined the capability of the selected compounds to generate ROS in the presence or absence of NADH/NADPH dehydrogenase (Table 1). ROS can be generated by NADH/NADPH-dehydrogenase via the one electron reduction of a quinone ring of 1,4-NQs. Unstable half-reduced quinones (semiquinones) transfer electrons to molecular oxygen, thus generating superoxide anion radicals (O2^●-), which are converted by SOD to hydrogen peroxide. We believe that our assay measuring compound’s ability to generate H2O2 in the presence or absence of NADH/NADPH dehydrogenase more closely resembles conditions inside the cell than the assay designed to measure compound’s redox potential values. […] To determine the ability of compounds to induce ROS, compounds were incubated for 4 h at 37°C with and without NADH/NADPH-dehydrogenase in the presence of NADPH as an electron donor and SOD to convert generated superoxide radicals into hydrogen peroxide. At the end of incubation, 10-acetyl-3,7-dihydroxyphenoxazine (ADHP) and horseradish peroxidase (HRP) were added to the reaction and the level of HRP-mediated formation of the fluorogenic product, resorufin, was measured on a plate reader. ROS production was detected in reactions with either the toxic or non-toxic compounds.

[2] = Distribution coefficient LogD; type: physicochemical; conditions: pH 7.4
From the text: We conclude that the analysis of the octanol-water partitioning is not sufficient to establish a link between degree of lipophilicity and biological activities of the selected compounds.

[3] = system: human primary hepatocytes; experiment: cells; conditions: Hepatocyte, read-out: EC50, μM Hepatocytes
From the text: (§1) We selected hepatocytes as normal cells because hepatocytes are mediate toxicity to multiple drugs and are used as a standard to assess toxicity of drugs in vitro [28]. […] For comparison with the standard of care, doxorubicin was also included in this analysis.

human GAPDH enzyme = biological target: T1, human GAPDH enzyme (Homo sapiens, UniProt P04406); experiment: GAPDH activity assay in MIA PaCa-2 cells; type: cell-based; conditions: 2 h; for inhibition of GAPDH: 30 μM; for remaining activity at 30 µM: read-out: GAPDH, enzyme residual activity as compared to DMSO-treated sample
T1 construct: endogenous in cells; host or cells: MIA PaCa-2 cells
T1 sequence (P04406 whole entry): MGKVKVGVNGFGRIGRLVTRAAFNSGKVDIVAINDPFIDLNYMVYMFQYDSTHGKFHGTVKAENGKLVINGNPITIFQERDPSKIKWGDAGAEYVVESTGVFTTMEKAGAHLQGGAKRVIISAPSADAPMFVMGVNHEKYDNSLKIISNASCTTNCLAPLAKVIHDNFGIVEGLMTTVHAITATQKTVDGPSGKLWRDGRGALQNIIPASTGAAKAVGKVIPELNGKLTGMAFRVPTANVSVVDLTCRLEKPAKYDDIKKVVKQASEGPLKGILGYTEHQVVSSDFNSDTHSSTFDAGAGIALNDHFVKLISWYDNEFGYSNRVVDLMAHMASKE
Protocol: Cells were incubated for 2 h with either compounds (30 μM) or DMSO in a 6-well plate. Next, cells were collected in 200 μl of PBS and disrupted by sonication. Insoluble material was removed by centrifugation. The level of GAPDH activity was determined by GAPDH activity assay kit (BioVision).
As a final step, we evaluated the inhibitory activity of the selected compounds against human GAPDH enzyme in a cell-based assay using MIA PaCa-2 cells (Table 1). Cells were pre-incubated with compounds for 2 h at 37°C followed by cell lysis using sonication and GAPDH activity assay. The ability of compounds to inhibit GAPDH was expressed as percentage of GAPDH residual activity with respect to DMSO-treated cells. […] Similar to the GSR activity assay, only two of the most toxic compounds 31 and 32, were able to inhibit GAPDH by 95 and 97%, respectively.

[4] = biological target: T2, human GSR enzyme (recombinant GSR) (Homo sapiens, UniProt P00390); experiment: Glutathione reductase (GSR) activity assay; type: biochemical; conditions: for remaining activity at 30 µM: 2 h at 25°C, read-out: GSR, enzyme residual activity as compared to DMSO-treated sample
T2 construct: made in house; host or cells: E. coli BL21(DE3)
T2 sequence (P00390 44-522): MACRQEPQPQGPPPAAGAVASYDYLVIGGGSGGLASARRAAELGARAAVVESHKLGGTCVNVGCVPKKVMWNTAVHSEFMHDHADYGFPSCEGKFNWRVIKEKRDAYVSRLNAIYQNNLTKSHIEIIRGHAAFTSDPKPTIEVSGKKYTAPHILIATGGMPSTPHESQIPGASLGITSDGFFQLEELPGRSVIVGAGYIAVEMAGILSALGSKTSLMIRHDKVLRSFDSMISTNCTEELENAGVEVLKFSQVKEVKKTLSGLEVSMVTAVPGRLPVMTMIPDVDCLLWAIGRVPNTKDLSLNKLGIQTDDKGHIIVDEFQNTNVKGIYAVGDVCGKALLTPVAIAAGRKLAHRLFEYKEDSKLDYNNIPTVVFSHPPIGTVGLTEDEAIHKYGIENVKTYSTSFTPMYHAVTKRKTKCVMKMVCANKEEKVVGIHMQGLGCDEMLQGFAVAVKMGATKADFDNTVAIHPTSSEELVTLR
Protocol: Recombinant GSR (0.5 u/well) in a 96-well plate was incubated in the GSR assay buffer (50 mM potassium phosphate buffer, pH 7.5 supplemented with 1 mM EDTA), 100 μl with and without compound (30 μM) for 2 h at 25°C. At the end of incubation, 100 μl of solution containing NADPH (0.087 mM), oxidized glutathione (GSSG) (0.95 mM) and 1 μl of the reagent that detects ratio of GSSG to reduced glutathione (GSH) (Abcam) were added and the mixture was incubated for an additional 1 h at 25°C. GSR activity was measured by using 490-nm excitation and monitoring fluorescence at 520 nm with a fluorescence plate reader. One unit of GSR activity was defined as the amount of enzyme required to produce 1 μM of GSH in a total reaction volume of 200 μl in 1 minute in the GSR assay buffer containing NADPH (0.087 mM), GSSG (0.95 mM) and 1 μl of GSH/GSSG ratio detection reagent (Abcam).
Next, we evaluated the inhibitory activity of the selected compounds against human GSR enzyme using recombinant GSR and Abcam GSH/GSSG ratio detection reagent (Table 1). Briefly, GSR activity was measured by following oxidized glutathione (GSSG) reduction in the presence of NADPH and expressed as percentage of residual activity with respect to DMSO-treated enzyme. The residual activity of GSR for both the non-toxic and toxic compounds was quite heterogeneous, ranging from 100% (compounds 38) to 3% (compound 32). […] We thus conclude that GSR inhibitory activity alone cannot be used to predict the selective cytotoxicity index.

in vitro = conditions: human, primary hepatocytes
From the text: as §1

[5] = octanol/water, read-out: LogD, pH = 7.4

Structure (SMILES) | H2O2 generation, NADH/NADPH dehydrogenase - [1] [µM] | H2O2 generation, NADH/NADPH dehydrogenase + [1] [µM] | logD [2, 5] | EC50 [3] [µM] | inhibition of GAPDH (human GAPDH enzyme) | inhibition at 30 µM (human GAPDH enzyme) [%] | remaining activity at 30 µM (human GAPDH enzyme) [%] | remaining activity at 30 µM [4] [%] | CC50 (in vitro) [µM] | inhibition at 30 µM ([4]; read-out: GSR-inhibiting activity) [%] | logD [2]
CCCC(=O)NC1=C(Cl)C(=O)c2ccccc2C1=O [compound 31] | 5.7 | 9.0 | 2.03 | 1.6 | almost completely inhibited GAPDH | 95 | 5 | 28 | 1.6 | – | –
CCCCC(=O)NC1=C(Cl)C(=O)c2ccccc2C1=O [compound 32] | 6.3 | 10.6 | 2.79 | 2.2 | almost completely inhibited GAPDH | 97 | 3 | 1 | 2.2 | 99 | –
O=C1C(Cl)=C(NCCc2ccccc2)C(=O)c2ccccc21 [compound 36] | 7.0 | 6.3 | 0 | 8.8 | – | – | 97 | 42 | 8.8 | – | –
O=C1C(Cl)=C(Nc2nccs2)C(=O)c2ccccc21 [compound 38] | 1.9 | 2.7 | 0.1 | 26 | – | – | 100 | 90 | 26 | – | –
O=C1C(Cl)=C(Nc2ccccc2)C(=O)c2ccccc21 [compound 39] | 1.6 | 2.8 | 0.13 | 2.3 | – | – | 93 | 92 | 2.3 | – | –
Cc1ccccc1NC1=C(Cl)C(=O)c2ccccc2C1=O [compound 40] | 5.0 | 2.9 | 0 | 24.5 | – | – | 88 | 72 | 24.5 | – | –
COC1=C(N(C)C)C(=O)c2ccccc2C1=O [compound 53] | 1.5 | 2.5 | 0 | > 90 | – | – | 95 | 61 | – | – | –
COC1=C(N2CC2)C(=O)c2ccccc2C1=O [compound 54] | 2.4 | 3.9 | – | > 90 | – | – | 73 | 54 | – | – | 0.31
CCNC1=CC(=O)c2ncccc2C1=O [compound 66] | 5.4 | 10.3 | 2.87 | > 90 | – | – | 93 | 59 | – | – | –

Reference: article PMC6433232, “Targeting mitochondria in cancer therapy could provide a basis for the selective anti-cancer activity” (PLoS ONE, 2019)
